Experimental data: US7396946B2, “Compound for treatment of external secretion disorders” (Sucampo AG, priority 1999, dated 2008)

Test system: normal rabbits
Assay: Effect on whole tear secretion of normal rabbits, rate of increase (Test Example 5)
Format: in vivo, Male Japanese albino rabbits
Settings: 30 μl/eye single, 2 hours after the instillation compared with before (0 hour), 4 eyes
Method: Male Japanese albino rabbits were used.
(2) Method of Administration
Ophthalmic solution comprising an active ingredient of the present invention was prepared and used as a test composition.
Each of the compositions was instilled to the eye singly at the amount of 30 μl/eye.
Amount of the Tear Secretion
Before (0 hour) and 2 hours after the instillation, the whole tear secretion was determined.
Under no anesthetization, one edge of the Schirmer's test strip (Showa Yakuhin Kako Co., Ltd.) was inserted into the conjunctival sac of the each test animal. One minute after, the strip was removed and the length of the moisted part was read from the scale provided on the strip to determine the amount of whole tear secretion.
The rate (%) of increased amount of whole tear secretion was calculated at the 2 hours after the instillation compared with the before (0 hour).

Molecule: 2-decarboxy-2-(2-carboxyethyl)-13,14-dihydro difluoro-PGE1 [Compound 3]
- Rate of the increased whole tear secretion (10 μg/ml ophthalmic solution): 52.0%

Molecule: CCCC(F)(F)C(=O)C=CCC1C(O)CC(=O)C1CCCCCCC(=O)OC (centres unmarked) [Compound 1, 15-dehydroxy-13,14-dihydro-14,15-dehydro-16keto-17,17-difluoro-PGE1-methyl ester]
- Rate of the increased whole tear secretion (30 μg/ml ophthalmic solution): 40.7%

Molecule: CCCCCCC(F)(F)C(=O)CCC1C(O)CC(=O)C1CCCCCCC(=O)O (centres unmarked) [Compound 2, 13,14-dihydro-15-keto-16,16-difluoro-20-ethyl-PGE1]
- Rate of the increased whole tear secretion (10 μg/ml ophthalmic solution): 52.5%

Molecule: CCCCC(F)(F)C(=O)CCC1C(O)CC(O)C1C/C=C\CCCC(=O)OC (centres unmarked) [Compound 4, 13,14-dihydro-15-keto-16,16-difluoro-PGF2a-Methyl ester]
- Rate of the increased whole tear secretion (3 ug/ml ophthalmic solution): 61.8%

Molecule: CCCCC(F)(F)C(=O)CCC1CCC(=O)C1CCCCCCC(=O)O (centres unmarked) [Compound 5, 11-dehydroxy-13,14-dihydro-15-keto-16,16-difluoro-PGE1]
- Rate of the increased whole tear secretion (3 ug/ml ophthalmic solution): 43.5%

Molecule: CCCCCC(=O)CC[C@H]1[C@H](O)CC(=O)[C@@H]1CCCCCCC(=O)O [Compound 6, 13,14-dihydro-15-keto-PGE1]
- Rate of the increased whole tear secretion (100 μg/ml ophthalmic solution): 44.0%

Molecule: CCCCCCC(F)(F)C(=O)CCC1C(O)CC(=O)C1CCCCCCCCC(=O)OC(C)C (centres unmarked) [Compound 7, 2-decarboxy-2-(2-carboxyethyl)-13,14-dihydro 15-keto-16,16-difluoro-20-ethyl-PGE1-isopropyl ester]
- Rate of the increased whole tear secretion (2O00 μg/ml ophthalmic solution): 56.9%

Molecule: CCCCC(F)(F)C(=O)CCC1C(O)CC(=O)C1C/C=C\CCCC(=O)O (centres unmarked) [Compound 8, 13,14-dihydro-15-keto-16,16-difluoro-PGE2]
- Rate of the increased whole tear secretion (1 μg/ml ophthalmic solution): 24.8%
